# Data published in the METLIN SMRT retention time set (Domingo-Almenara et al. 2019).
# Test: gradient 5% acetonitrile 3 min, to 50% in 2 min, to 85% in 15 min, held 3 min, 100 µL/min
# Settings: column: Zorbax Extend-C18 2.1 x 50 mm; eluents: water / acetonitrile, 0.1% formic acid
# How it was run: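 Pure standards were run in mixtures of ~100 molecules by HPLC coupled to a quadrupole time-of-flight mass spectrometer. The column was a Zorbax Extend-C18 (2.1 × 50 mm, 1.8 μm) at 100 μL/min, with water and acetonitrile each containing 0.1% formic acid, in positive and negative ionization mode. Dead and dwell volumes were 40 μL and 900 μL. Retention time was taken from computationally picked adduct peaks, each manually inspected, with data collected over 3 months.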
row,RP-LC retention time [s],SMILES
1,985,CCCn1ccc2sc(C)c(C(=O)NCc3ccc(Cl)cc3)c2c1=O
2,635,O=C(Nc1ccccc1)N1CCC(N2CC(OCC3CC3)C23CCOCC3)CC1 (stereo not drawn)
3,786,CC(C)CCNC(=O)C1(C)CCC(=O)N1CCc1c[nH]c2ccccc12 (stereo not drawn)
4,742,CN1CCCc2cc(C(CNC(=O)C(=O)Nc3ccc4c(c3)OCCO4)N3CCCCC3)ccc21 (stereo not drawn)
5,600,O=C(Cc1c[nH]c2ccccc12)NC1CCN(c2ccc(=O)[nH]n2)C1 (stereo not drawn)
6,824,Cc1cccc(C)c1NC(=O)C1CCN(S(=O)(=O)c2ccc3c(c2)NC(=O)C(C)O3)CC1 (stereo not drawn)
7,856,CC1(C(=O)NCc2ccccc2)CN(S(C)(=O)=O)CC(=O)N1CCCc1ccccc1 (stereo not drawn)
8,612,COCCN1C(=O)c2ccccc2C(C(=O)NCCCN2CCCCC2)C1c1cccs1 (stereo not drawn)
9,1070,CCc1ccc(CNC(=O)CCC2CCCN(S(=O)(=O)c3ccccc3C)C2)cc1 (stereo not drawn)
10,687,CC(C)NC(=O)c1cccc(Nc2c(-c3ccc(Cl)cc3)nc3cnccn23)c1
11,934,CCCn1c(=O)sc2cc(S(=O)(=O)N3CCC(C(=O)NCc4ccc(F)cc4)CC3)ccc21
12,571,Cc1ccc(-c2ccc(N3CCCC(C(=O)NCCCN4CCOCC4)C3)nn2)cc1 (stereo not drawn)
13,952,CCn1cc(-c2ccc(OC)cc2)cc1C(=O)N1CCCC1
14,1130,Cc1ccc(-c2csc(NC(=O)CCc3nc(CSc4nc5ccccc5o4)no3)n2)cc1
15,664,Cc1ccc2oc(N3CCCN(C(=O)c4ccc(-c5noc(C(C)C)n5)cc4)CC3)nc2n1
16,784,Cc1ccc(CNC(=O)C2(C)Cn3cnc(C(=O)N4CCCCC4)c3C(=O)N2C2CC2)cc1 (stereo not drawn)
17,910,COc1ccc(NC(=O)c2nnc(CSCC(=O)NCCc3c[nH]c4ccc(C)cc34)s2)cc1
18,612,CCN(CC)C(=O)N1CC(n2cc(C(=O)N3CCOCC3)nn2)C1
19,1150,CCc1ccc(-c2csc(Nc3ccc(S(=O)(=O)Nc4cc(OC)nc(OC)n4)cc3)n2)cc1
20,960,Cc1cc(-c2nnc(C3CCC3)o2)c(C)n1CC(=O)NCc1ccccc1C(F)(F)F
21,866,Cc1ccc(F)cc1S(=O)(=O)N1CCC2(C1)C(=O)Nc1ccccc12 (stereo not drawn)
22,1010,CCc1ccccc1NC(=O)CSc1cc(N2CCN(c3ccc(OC)cc3)CC2)ncn1

row,RP-LC retention time [s],SMILES
1,598,Cc1cc(N(C)C)nc(NCCNC(=O)C(C)(C)Oc2ccc(Cl)cc2)n1
2,1150,CCc1nc2cc(-c3noc(Cc4c(F)cccc4Cl)n3)ccc2o1
3,718,Cc1nc(NS(=O)(=O)c2ccccc2)sc1C(=O)NCc1c(F)cccc1F
4,768,CN1C(=O)c2cc(C(=O)NCCc3ccccc3)nn2CC1(C)C(=O)NCc1ccc(F)cc1 (stereo not drawn)
5,1240,O=C(NC1CC1)c1ccc(CN2CCN(Cc3ccccc3)C(=O)C2=O)cc1
6,1130,O=C(COc1ccccc1Br)Nc1nc(-c2ccccc2)cs1
7,768,COc1ccc(-c2nnc(-c3ccc(OC)c(S(=O)(=O)N4CCOCC4)c3)o2)cc1OC
8,1270,CCOC(=O)c1ccc(N(C)c2csc(-c3ccccc3)n2)cc1
9,645,Cc1ccc2nc(C(=O)NCc3ccc(F)cc3)cn2c1
10,624,Cc1nnc(NC(=O)C2CCN(C(=O)c3ccccc3F)CC2)s1
11,662,COCC(=O)N1CCCc2ccc(NC(=O)NCc3cccs3)cc21
12,813,CCc1ccc(-c2cc3c(=O)n(Cc4noc(CN5CCOCC5)n4)ccn3n2)cc1
13,686,CCc1nccn1Cc1nc(-c2cccc(C(F)(F)F)c2)no1
14,759,Cc1ccn2c(NC(=O)COc3ccc(Cl)cc3)c(-c3ccc(F)cc3)nc2c1
15,965,COc1ccc(C(=O)N2CCc3cc(-c4csc(C)n4)ccc32)c(OC)c1
16,1160,Cc1ccc2c(c1)OCC(=O)N2Cc1nc(-c2cccc(Cl)c2)no1
17,735,O=C(NCc1cc(F)cc(F)c1)C1CCCN(c2ccc(-c3ccccc3)nn2)C1 (stereo not drawn)
18,614,CCOc1ccc(NC(=O)c2cn3c(n2)CCCC3)cc1
19,704,Cc1nc2sccn2c(=O)c1NC(=O)Nc1ccc(C(C)C)cc1
20,735,Cc1csc(NC(=O)Cn2nc3c(cc2=O)CCCCC3)n1
21,744,COCc1nc2cccnc2n1C1CCN(C(=O)Nc2ccc(Cl)cc2)CC1
22,1220,Cc1csc(-c2cc(S(=O)(=O)N3c4ccccc4CC3C)c(C)s2)n1 (stereo not drawn)

row,RP-LC retention time [s],SMILES
1,1150,Cc1sc2ncnc(SCc3ccco3)c2c1C
2,956,Cc1ccc(CNC(=O)C2(C)CCN(C(=O)Nc3ccc(C)cc3Cl)CC2)cc1
3,1090,Cc1ccc(C)c(NC(=O)Cn2c(C)nc3c(sc4nc(-c5ccccc5)ccc43)c2=O)c1
4,637,CC(C)c1cc(C(=O)N2CCOCC2)nc2ccnn12
5,824,CCc1noc(-c2cccn2CC#N)n1
6,762,CC(C)CC(=O)Nc1ccc2nc(N3CCN(c4cccc(Cl)c4)CC3)cc(C(=O)O)c2c1
7,772,Cn1ncc(NC(=O)Cc2ccc(Cl)cc2)c(N2CCOCC2)c1=O
8,580,COCCNC(=O)C1CCN(c2cnc(N3CCCC3)nc2)CC1
9,1090,Cc1nn(CC(=O)N2CCCCCC2)c(=O)c2c(-n3cccc3)n(-c3ccc(Cl)cc3)nc12
10,706,COCCN1C(=O)[C@H]2CN(Cc3cccc(OC(F)(F)F)c3)C[C@H]2C1=O
11,585,O=C(NC1CC1)c1c2c(nc3ccccc13)CCCC2
12,882,CC(CCc1ccccc1)NC(=O)C1CCN(S(=O)(=O)c2ccc3c(ccn3C)c2)CC1 (stereo not drawn)
13,894,O=C(NCCc1ccc(Cl)cc1)c1csc(C(=O)N2CCCC2)n1
14,744,COc1ccc2[nH]cc(CCN3CC(C(=O)Nc4nnc(C(C)(C)C)s4)CC3=O)c2c1 (stereo not drawn)
15,1100,O=C1COc2cc(Cl)ccc2N1Cc1nc(-c2cccc(F)c2)no1
16,646,COc1ccc(-c2nnc(-c3ccc(C)c(S(=O)(=O)N4CCN(C)CC4)c3)o2)cc1OC
17,1310,CCN(CC)c1nc2cc(C(=O)OC)ccc2c(=O)n1Cc1ccc(C)cc1
18,769,CCN(CC)S(=O)(=O)c1ccc2c(c1)N(CC(=O)NCC1COCCO1)C(=O)C1CCCCN21 (stereo not drawn)
19,852,O=C(Cc1c(F)cccc1Cl)N1C[C@@H]2C[C@H]1C[C@@H]2NS(=O)(=O)c1ccccc1
20,822,CCC(C)NC(=O)NC1CCN(C2=NS(=O)(=O)C(c3ccc(C)cc3)=C2C)CC1 (stereo not drawn)
21,584,NC(=O)C1CCN(c2ncnc3c2oc2ccccc23)CC1
22,678,CCOc1ccc(C2c3[nH]c4ccccc4c3CCN2C(=O)c2ccnn2C)cc1 (stereo not drawn)

row,RP-LC retention time [s],SMILES
1,614,Cc1ccc(N2C(=O)CC(N3CCC(C(N)=O)CC3)C2=O)c(Cl)c1 (stereo not drawn)
2,854,O=C(C1=NN(Cc2ccc(Cl)cc2)c2ccccc2S1(=O)=O)N1CCOCC1
3,714,O=C(NCC(c1cccnc1)c1c[nH]c2ccccc12)Nc1cccc(Br)c1 (stereo not drawn)
4,969,O=C(Nc1ccc(F)cc1F)c1ccc(Br)cc1F
5,874,COC(=O)C1=CN(c2cc(OC)ccc2OC)c2ccc(F)cc2S1(=O)=O
6,1070,Cc1ccc(S(=O)(=O)N2CCc3c(c(-c4nnc(-c5ccccc5)o4)nn3C)C2)cc1Cl
7,691,O=C(Nc1ccc2c(c1)OCCO2)C1CCCN(c2ccnc(-c3ccc(F)cc3)n2)C1 (stereo not drawn)
8,553,CC(=O)N1CCC(c2nc(-c3ccc4c(c3)ncn4CCN3CCCC3)no2)CC1
9,738,COc1ccc(-c2cc(N3CCN(C(=O)COc4ccc(Cl)cc4)CC3)ncn2)cc1
10,911,CCCN1C(=O)c2ccccc2Sc2cc(-c3noc(CNC(=O)c4ccco4)n3)ccc21
11,783,CCOC(=O)CNC(=O)NC(C(=O)N1CCc2ccccc21)C(C)C (stereo not drawn)
12,614,Cn1c(N2CCN(S(=O)(=O)c3ccc(Cl)s3)CC2)nc2ccccc21
13,1050,CCN1C(=O)c2cc(S(=O)(=O)Nc3ccc(Cl)cc3)ccc2Oc2cccnc21
14,754,Cc1cccc(NC(=O)Cn2cnc3onc(C)c3c2=O)c1C
15,870,COc1ccc(F)cc1S(=O)(=O)N1CCC(OCc2noc(C3CCCO3)n2)CC1 (stereo not drawn)
16,1030,CCOc1ccc(-c2ccc(=O)n(CCc3nc(-c4ccc(SC)cc4)no3)n2)cc1
17,1320,CCCN1C(=O)COc2ccc(-c3noc(-c4ccc(OC)cc4C)n3)cc21
18,712,O=C(Nc1ccc2c(c1)CN(S(=O)(=O)c1cccnc1)CCO2)C1CC1
19,592,CCn1cc(S(=O)(=O)N2CCC(Cc3nc(-c4cccnc4)n[nH]3)C2)cn1 (stereo not drawn)
20,1060,Cc1noc(C)c1-c1ccc(S(=O)(=O)N2CCCc3ccccc32)cc1
21,1010,CCc1ccccc1S(=O)(=O)N1CCc2c(c(-c3nc(C4CC4)no3)nn2C)C1
22,943,CCOC(=O)c1c(S(=O)(=O)N2CCC(C(=O)Nc3ccc(CC)cc3)CC2)c(C)n(C)c1C
